The values that follow are results of earlier work, collected in patent US20220047514A1, “SOLID ORAL PHARMACEUTICAL COMPOSITIONS FOR CHRONOTROPIC ADMINISTRATION OF DIPEPTIDYL PEPTIDASE IV INHIBITORS” (priority 2018, published 2022).

For one data set, the target named is DPP-8 (Homo sapiens, UniProt Q6V1X1). Particulars: at therapeutic concentrations.
A further data set addresses DPP-9 (Homo sapiens, UniProt Q86TI2). The following applies: at therapeutic concentrations.

DPP-8, sequence (Q6V1X1 whole entry): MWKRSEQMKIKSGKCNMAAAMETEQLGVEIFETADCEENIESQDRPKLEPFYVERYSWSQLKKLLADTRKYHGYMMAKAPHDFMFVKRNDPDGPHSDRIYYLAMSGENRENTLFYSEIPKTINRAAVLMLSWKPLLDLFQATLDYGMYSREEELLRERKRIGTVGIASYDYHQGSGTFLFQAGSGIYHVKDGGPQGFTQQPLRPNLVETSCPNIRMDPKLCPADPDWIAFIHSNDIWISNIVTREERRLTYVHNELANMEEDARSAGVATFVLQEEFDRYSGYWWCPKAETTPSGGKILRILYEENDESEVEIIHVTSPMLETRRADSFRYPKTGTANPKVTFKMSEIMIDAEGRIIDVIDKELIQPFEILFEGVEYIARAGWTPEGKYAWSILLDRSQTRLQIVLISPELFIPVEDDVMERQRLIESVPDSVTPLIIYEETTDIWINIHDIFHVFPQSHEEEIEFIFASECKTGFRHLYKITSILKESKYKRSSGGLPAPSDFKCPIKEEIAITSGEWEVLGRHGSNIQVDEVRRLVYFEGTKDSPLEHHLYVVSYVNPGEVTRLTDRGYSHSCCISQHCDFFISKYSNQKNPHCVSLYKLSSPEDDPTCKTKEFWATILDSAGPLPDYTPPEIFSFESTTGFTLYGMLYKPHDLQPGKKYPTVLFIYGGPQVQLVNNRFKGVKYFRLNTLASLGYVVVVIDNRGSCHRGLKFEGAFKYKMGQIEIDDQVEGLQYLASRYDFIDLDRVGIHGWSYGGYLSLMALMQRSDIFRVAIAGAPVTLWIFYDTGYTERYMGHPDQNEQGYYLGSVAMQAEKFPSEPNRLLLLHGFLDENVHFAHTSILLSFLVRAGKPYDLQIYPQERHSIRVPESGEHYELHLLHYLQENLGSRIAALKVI
DPP-9, sequence (Q86TI2 whole entry): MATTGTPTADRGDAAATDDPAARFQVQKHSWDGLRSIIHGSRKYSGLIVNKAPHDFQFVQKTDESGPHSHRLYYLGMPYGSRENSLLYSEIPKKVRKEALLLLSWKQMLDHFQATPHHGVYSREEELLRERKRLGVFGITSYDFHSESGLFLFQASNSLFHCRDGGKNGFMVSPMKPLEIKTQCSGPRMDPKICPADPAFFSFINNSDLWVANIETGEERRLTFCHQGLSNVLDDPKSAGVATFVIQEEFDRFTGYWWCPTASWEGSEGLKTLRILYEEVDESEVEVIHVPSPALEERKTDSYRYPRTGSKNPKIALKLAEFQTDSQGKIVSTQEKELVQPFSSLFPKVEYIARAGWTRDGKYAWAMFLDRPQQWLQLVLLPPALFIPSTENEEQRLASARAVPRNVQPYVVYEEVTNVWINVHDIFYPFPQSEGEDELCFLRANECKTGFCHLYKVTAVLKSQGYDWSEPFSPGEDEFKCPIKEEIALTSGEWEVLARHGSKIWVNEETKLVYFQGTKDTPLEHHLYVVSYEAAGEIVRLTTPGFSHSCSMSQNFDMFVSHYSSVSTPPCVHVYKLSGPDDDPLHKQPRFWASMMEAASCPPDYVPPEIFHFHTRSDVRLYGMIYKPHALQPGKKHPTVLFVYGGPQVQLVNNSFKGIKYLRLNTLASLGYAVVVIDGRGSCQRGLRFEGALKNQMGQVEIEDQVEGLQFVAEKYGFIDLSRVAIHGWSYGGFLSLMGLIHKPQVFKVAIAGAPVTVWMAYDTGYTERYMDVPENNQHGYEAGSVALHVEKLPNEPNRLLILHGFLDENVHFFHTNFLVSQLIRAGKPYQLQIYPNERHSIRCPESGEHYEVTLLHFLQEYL

For the molecule `N[C@@H](CC(=O)N1CCn2c(nnc2C(F)(F)F)C1)Cc1cc(F)c(F)cc1F` [Sitagliptin, sitagliptin], the “inhibition of the activity of DPP-8” value on DPP-8 is reported as “does not inhibit”. For the same molecule, at DPP-9, the “inhibition of the activity of DPP-9” value is recorded as “does not inhibit”.
